Holding throughout (assay type): cell-based
In one experiment the test system is HCT116 cells. The experiment can be described thus: Tumor cell proliferation (Alamar Blue), HCT116. Particulars: Homo sapiens, HCT-116, 72 h. In a few lines:
(§1)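 Cells seeded at 3.0×10^3/well in RPMI with 10% FBS for 16 h, then treated with compound (added medium held 40 μM to 18 nM compound, 0.4% DMSO) for 72 h at 37 °C, 5% CO2. Viability by Alamar Blue, 3 h, fluorescence 544/590 nm. IC50 by linear regression of log concentration versus percent inhibition.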
On the technique in general: Resazurin is reduced to fluorescent resorufin, in cell work by metabolically active cells.

Experiment [1] deals with VEGF stimulated Phospho-ERK in HUVEC. Description: Growth factor stimulated p-ERK assay in HUVECs (VEGF stimulation, ERK1/2 Bioplex). The settings on record: Homo sapiens, @ 100 nM, compound 2 hrs, then 50 ng/ml VEGF 10 min. The method in brief:
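HUVECs in serum-free RPMI 1640/0.1% BSA pretreated with compound 2 hrs, then stimulated 10 min with 50 ng/ml VEGF (or bFGF). Lysate phospho-ERK1/2 quantified by bead-based Bio-Plex immunoassay on Luminex.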

Experiment [2] relates to histone 3 phosphorylation in colon carcinoma (HCT116). Description: p-Histone3 assay: inhibition of histone 3 phosphorylation in HCT116. Particulars: Homo sapiens, HCT-116, 24 h, HCT116, 24 hours compound treatment. On the procedure: Compounds were assayed for the inhibition of histone 3 phosphorylation in colon carcinoma (HCT116). Briefly, 20,000 cells/well were seeded in a 96-well black-walled, poly-d-lysine plates in RPMI+10% FBS and incubated at 37° C. in 5% CO2 overnight. The following day, the cells were treated with compounds for 24 hours at 37° C. Following compound treatment; plates were centrifuged at 1000 rpm for 2 minutes and washed twice with 100 μl of cold sterile TBS. Cells were then fixed with cold 3.7% formaldehyde in TBS (4° C. for 1 hour) and then permeabolized with 0.1% Triton-X-100 in TBS (room temperature for 30 minutes). Plates were then washed with of 0.25% BSA-TBS and blocked with BSA solution for 1 hour at room temperature while shaking. The supernatant was removed and replaced with diluted primary antibody (anti-phospho-histone 3, serine 10, Cell Signaling) at 1:250 in 0.25% BSA-TBS and incubated overnight at 4° C. The plates were washed and treated with diluted secondary antibody (anti-rabbit Eu-labeled) at 1:10000 in 0.25% BSA-TBS (room temperature for 1 hour). The antibody solution was removed from each well and washed eight times. The wash buffer was replaced with 50 μl pre-warmed enhancement solution and mixed on the orbital shaker for 10 minutes. Fluorescence was detected with a Victor V Fluorescence Detector. The data are expressed as percent inhibition: % inhibition=100−((Signal with inhibitor-background)/(Signal without inhibitor-background))×100.

Another experiment concerns MDA-MB-231 cells. The experiment can be described thus: Tumor cell proliferation (Alamar Blue), MDA-MB-231. Particulars: Homo sapiens, MDA-MB-231, 72 h. In a few lines:
as §1

The term IC50 denotes the point on the concentration scale where inhibition reaches its midpoint. For orientation: inhibition means the relative decrease from the control value, in per cent. For `CNC(=O)c1cn2ncnc(N)c2c1-c1ccc(NC(=O)Nc2cc(C(F)(F)F)ccc2F)cc1` [Example 59, 4-amino-5-{4-[({[2-fluoro-5-(trifluoromethyl)phenyl]amino}carbonyl)amino]phenyl}-N-methylpyrrolo[2,1-f][1,2,4]triazine-6-carboxamide], the IC50 was above 0.5 µM with HCT116 cells; below 1.5 µM in the experiment with HCT116 cells (bounds given in μM); above 0.5 µM in experiment [2]; below 1 µM in experiment [2] (bound given in μM); above 0.5 µM in the experiment with MDA-MB-231 cells; below 1.5 µM in the experiment with MDA-MB-231 cells (bounds given in μM). In addition, the inhibition at 0.1 µM in experiment [1] was above 50%.
Take `COCCNC(=O)c1cn2ncnc(N)c2c1-c1ccc(NC(=O)Nc2cc(C(F)(F)F)ccc2F)cc1` [Example 167, 4-amino-5-{4-[({[2-fluoro-5-(trifluoromethyl)phenyl]amino}carbonyl)amino]phenyl}-N-(2-methoxyethyl)pyrrolo[2,1-f][1,2,4]triazine-6-carboxamide]: the IC50 was above 0.5 µM in experiment [2] and below 1 µM in experiment [2] (bound given in μM).
On to `CCOC(=O)c1cn2ncnc(N)c2c1-c1ccc(NC(=O)Nc2cccc(Oc3ccccc3)c2)cc1` [Example 171, ethyl 4-amino-5-[4-({[(3-phenoxyphenyl)amino]carbonyl}amino)phenyl]pyrrolo[2,1-f][1,2,4]triazine-6-carboxylate], for which the IC50 in experiment [2] is below 0.5 µM.
On to `CCNC(=O)c1cn2ncnc(N)c2c1-c1ccc(NC(=O)Nc2cccc(C(F)(F)F)n2)cc1` [Example 176, 4-amino-N-ethyl-5-{4-[({[6-(trifluoromethyl)pyridin-2-yl]amino}carbonyl)amino]phenyl}pyrrolo[2,1-f][1,2,4]triazine-6-carboxamide], for which, in experiment [2], the IC50 was below 0.5 µM.
Same read-out and setting: the result for `Nc1ncnn2cc(C(=O)NC3CC3)c(-c3ccc(NC(=O)Nc4cccc(C(F)(F)F)n4)cc3)c12` [Example 177, 4-amino-N-cyclopropyl-5-{4-[({[6-(trifluoromethyl)pyridin-2-yl]amino}carbonyl)amino]phenyl}pyrrolo[2,1-f][1,2,4]triazine-6-carboxamide] reads below 0.5 µM.
For the compound `CSCCCNC(=O)c1cn2ncnc(N)c2c1-c1ccc(NC(=O)Nc2cccc(C(F)(F)F)n2)cc1` [Example 204, 4-amino-N-[3-(methylthio)propyl]-5-{4-[({[6-(trifluoromethyl)pyridin-2-yl]amino}carbonyl)amino]phenyl}pyrrolo[2,1-f][1,2,4]triazine-6-carboxamide], the IC50 is above 0.5 µM in experiment [2] and below 1 µM in experiment [2] (bound given in μM).
